Results from PubChem BioAssay (NCI).
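Cells were grown in 96-well plates and exposed to each compound for 48 hours at five concentrations; endpoints were interpolated linearly between bracketing concentrations, or set to the highest concentration if not reached. TGI: concentration producing complete growth inhibition.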

How the values were obtained:
Assay in all cases: NCI-60 cell line screen, 48 h
TK-10 renal = test system: TK-10 renal
MCF7 breast = test system: MCF7 breast
NCI-H226 lung = test system: NCI-H226 lung
MDA-MB-435 = test system: MDA-MB-435
IGROV1 ovarian = test system: IGROV1 ovarian
CCRF-CEM leukemia = test system: CCRF-CEM leukemia
RPMI-8226 leukemia = test system: RPMI-8226 leukemia
EKVX NSCLC = test system: EKVX NSCLC
HS 578T breast = test system: HS 578T breast
HCC-2998 colon = test system: HCC-2998 colon
M14 melanoma = test system: M14 melanoma
A498 renal = test system: A498 renal
HL-60(TB) leukemia = test system: HL-60(TB) leukemia
NCI-H522 lung = test system: NCI-H522 lung
SF-539 CNS = test system: SF-539 CNS
PC-3 prostate = test system: PC-3 prostate
U251 CNS = test system: U251 CNS
BT-549 breast = test system: BT-549 breast
786-0 renal = test system: 786-0 renal
K-562 leukemia = test system: K-562 leukemia
SK-MEL-28 melanoma = test system: SK-MEL-28 melanoma
MALME-3M melanoma = test system: MALME-3M melanoma
OVCAR-8 ovarian = test system: OVCAR-8 ovarian
NCI-H460 lung = test system: NCI-H460 lung
SF-268 CNS = test system: SF-268 CNS
NCI/ADR-RES ovarian = test system: NCI/ADR-RES ovarian
MDA-MB-231 breast = test system: MDA-MB-231 breast
UO-31 renal = test system: UO-31 renal
OVCAR-3 ovarian = test system: OVCAR-3 ovarian
DU-145 prostate = test system: DU-145 prostate
OVCAR-5 ovarian = test system: OVCAR-5 ovarian
SK-OV-3 ovarian = test system: SK-OV-3 ovarian
T-47D breast = test system: T-47D breast
UACC-257 melanoma = test system: UACC-257 melanoma
RXF 393 renal = test system: RXF 393 renal
SNB-19 CNS = test system: SNB-19 CNS
SN12C renal = test system: SN12C renal
LOX IMVI melanoma = test system: LOX IMVI melanoma
HOP-62 NSCLC = test system: HOP-62 NSCLC
SK-MEL-2 melanoma = test system: SK-MEL-2 melanoma
HCT-15 colon = test system: HCT-15 colon
CAKI-1 renal = test system: CAKI-1 renal
MOLT-4 leukemia = test system: MOLT-4 leukemia
HOP-92 NSCLC = test system: HOP-92 NSCLC
HCT-116 colon = test system: HCT-116 colon
SK-MEL-5 melanoma = test system: SK-MEL-5 melanoma
NCI-H23 lung = test system: NCI-H23 lung
SW-620 colon = test system: SW-620 colon
MDA-N = test system: MDA-N
SF-295 CNS = test system: SF-295 CNS
UACC-62 melanoma = test system: UACC-62 melanoma
SR leukemia = test system: SR leukemia
SNB-75 CNS = test system: SNB-75 CNS
HT29 colon = test system: HT29 colon
KM12 colon = test system: KM12 colon
OVCAR-4 ovarian = test system: OVCAR-4 ovarian
ACHN renal = test system: ACHN renal
A549 NSCLC = test system: A549 NSCLC
COLO 205 colon = test system: COLO 205 colon

CC(C)NC(=O)OCc1c(COC(=O)NC(C)C)c(-c2ccc[n+](COC(=O)C(C)C)c2)n2c1CCC2
TGI (TK-10 renal): > 100 µM
TGI (MCF7 breast): > 100 µM
TGI (NCI-H226 lung): > 100 µM
TGI (MDA-MB-435): > 100 µM
TGI (IGROV1 ovarian): > 100 µM
TGI (CCRF-CEM leukemia): > 91.2 µM
TGI (RPMI-8226 leukemia): > 100 µM
TGI (EKVX NSCLC): > 100 µM
TGI (HS 578T breast): > 100 µM
TGI (HCC-2998 colon): > 100 µM
TGI (M14 melanoma): > 100 µM
TGI (A498 renal): 61.2 µM
TGI (HL-60(TB) leukemia): > 59.4 µM
TGI (NCI-H522 lung): 91.4 µM
TGI (SF-539 CNS): > 83.3 µM
TGI (PC-3 prostate): > 100 µM
TGI (U251 CNS): > 100 µM
TGI (BT-549 breast): > 100 µM
TGI (786-0 renal): > 100 µM
TGI (K-562 leukemia): > 100 µM
TGI (SK-MEL-28 melanoma): > 100 µM
TGI (MALME-3M melanoma): > 100 µM
TGI (OVCAR-8 ovarian): > 100 µM
TGI (NCI-H460 lung): > 100 µM
TGI (SF-268 CNS): > 100 µM
TGI (NCI/ADR-RES ovarian): > 100 µM
TGI (MDA-MB-231 breast): > 100 µM
TGI (UO-31 renal): > 100 µM
TGI (OVCAR-3 ovarian): > 100 µM
TGI (DU-145 prostate): > 100 µM
TGI (OVCAR-5 ovarian): > 100 µM
TGI (SK-OV-3 ovarian): > 100 µM
TGI (T-47D breast): > 100 µM
TGI (UACC-257 melanoma): > 100 µM
TGI (RXF 393 renal): > 89.6 µM
TGI (SNB-19 CNS): > 100 µM
TGI (SN12C renal): > 100 µM
TGI (LOX IMVI melanoma): > 100 µM
TGI (HOP-62 NSCLC): > 100 µM
TGI (SK-MEL-2 melanoma): > 100 µM
TGI (HCT-15 colon): > 100 µM
TGI (CAKI-1 renal): 74.2 µM
TGI (MOLT-4 leukemia): > 79.3 µM
TGI (HOP-92 NSCLC): > 94.6 µM
TGI (HCT-116 colon): > 100 µM
TGI (SK-MEL-5 melanoma): > 100 µM
TGI (NCI-H23 lung): > 100 µM
TGI (SW-620 colon): > 100 µM
TGI (MDA-N): > 100 µM
TGI (SF-295 CNS): > 100 µM
TGI (UACC-62 melanoma): > 100 µM
TGI (SR leukemia): 97.4 µM
TGI (SNB-75 CNS): > 100 µM
TGI (HT29 colon): > 100 µM
TGI (KM12 colon): > 100 µM
TGI (OVCAR-4 ovarian): > 100 µM
TGI (ACHN renal): > 100 µM
TGI (A549 NSCLC): > 100 µM
TGI (COLO 205 colon): > 100 µM
